GI50 and TGI data for 8 compounds are collected here from PubChem BioAssay (NCI).

Among the test systems are SF-295 CNS; BT-549 breast; RPMI-8226 leukemia; MCF7 breast; OVCAR-8 ovarian; SR leukemia; MALME-3M melanoma; NCI-H23 lung; OVCAR-4 ovarian; SK-MEL-5 melanoma.
What all share (assay): inhibition of tumour cell growth, NCI panel, 48 h

Where “and” joins values, the source holds several entries; their conditions need not be identical. Equal entries are not always repeated.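 Protocol summary: plate cells (96-well), add compound at 5 concentrations, incubate 48 h, interpolate endpoints linearly. GI50 is the concentration that inhibits growth by half. TGI: concentration producing complete growth inhibition.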

In the case of `CCOC(=O)c1nc2cc(C(F)(F)F)ccc2[n+]([O-])c1C`, the GI50 in the test on SF-295 CNS, in the test with BT-549 breast, with RPMI-8226 leukemia, in the test on MCF7 breast, in the test on OVCAR-8 ovarian and with SR leukemia was above 100 µM throughout. For the same compound, the GI50 with MALME-3M melanoma, with NCI-H23 lung, in the test with OVCAR-4 ovarian and in the test with SK-MEL-5 melanoma was above 100 µM throughout. Moreover, the TGI with SF-295 CNS, in the test with BT-549 breast, in the test with RPMI-8226 leukemia, in the test with MCF7 breast, with OVCAR-8 ovarian and in the test on SR leukemia was above 100 µM throughout. The TGI with MALME-3M melanoma, in the test with NCI-H23 lung, with OVCAR-4 ovarian and in the test on SK-MEL-5 melanoma was above 100 µM each time.
Take `CCN1C(=O)N(CC)C2C1NN=c1s/c(=C\c3cccc([N+](=O)[O-])c3)c(=O)n12` (configuration not stated): the GI50 in the test with SF-295 CNS is 0.0423 µM; in the test with BT-549 breast, 0.291 µM; in the test with RPMI-8226 leukemia it was 0.127 µM; in the test on MCF7 breast, 0.0366 µM; in the test on OVCAR-8 ovarian, 0.172 µM; with SR leukemia, 0.0471 µM. For the same compound, the GI50 in the test with MALME-3M melanoma was 0.0812 µM; in the test with NCI-H23 lung, 0.413 µM; in the test on OVCAR-4 ovarian, 0.567 µM; in the test on SK-MEL-5 melanoma it was 0.0511 µM. The TGI in the test on SF-295 CNS was above 100 µM; with BT-549 breast, 33.5 µM; in the test with RPMI-8226 leukemia, above 100 µM; in the test with MCF7 breast it was above 100 µM; in the test on OVCAR-8 ovarian, above 100 µM; in the test on SR leukemia, above 100 µM. Besides, the TGI was above 100 µM with MALME-3M melanoma, above 100 µM in the test on NCI-H23 lung, above 100 µM in the test on OVCAR-4 ovarian and 1.17 µM in the test on SK-MEL-5 melanoma.
`C[C@@](O)(/C=C/[C@H]1CC=CC(=O)O1)[C@@H](C[C@@H](O)\C=C/C=C\C=C\CO)OP(=O)(O)O`: the TGI in the test with SF-295 CNS is 13.4 µM; with BT-549 breast, 36.6 µM; in the test with RPMI-8226 leukemia it was 8.5 µM; in the test with MCF7 breast, 13.9 µM and 50.4 µM; with OVCAR-8 ovarian, 90.7 µM and 86.5 µM; with SR leukemia, 41.6 µM. The TGI in the test with MALME-3M melanoma is 16 µM and 14.3 µM; in the test on NCI-H23 lung it was 91.6 µM and 68.3 µM; with OVCAR-4 ovarian, 25.5 µM; in the test on SK-MEL-5 melanoma, 21.8 µM and 27 µM. In addition, the GI50 is 5.01 µM in the test with MCF7 breast; 12.3 µM in the test on OVCAR-8 ovarian; 6.94 µM in the test on MALME-3M melanoma; 15 µM in the test with NCI-H23 lung; 7.89 µM in the test with SK-MEL-5 melanoma.
For `CC(OC(=O)N(N(CCCl)S(C)(=O)=O)S(C)(=O)=O)c1ccc([N+](=O)[O-])cc1` (configuration not stated), the GI50 with SF-295 CNS is 34.5 µM; with BT-549 breast, 33.8 µM; with RPMI-8226 leukemia, above 40.4 µM; in the test on MCF7 breast, 58 µM; in the test on OVCAR-8 ovarian it was above 100 µM; in the test with SR leukemia it was 26.7 µM. In addition, the GI50 is 41.5 µM with MALME-3M melanoma, 39.1 µM in the test on NCI-H23 lung, 73.5 µM with OVCAR-4 ovarian and 16.1 µM with SK-MEL-5 melanoma. Further, the TGI in the test on SF-295 CNS was above 100 µM; with BT-549 breast, above 100 µM; in the test on RPMI-8226 leukemia, above 61.4 µM; in the test with MCF7 breast it was above 100 µM; in the test with OVCAR-8 ovarian, above 100 µM; in the test on SR leukemia it was above 100 µM. For the same compound, the TGI with MALME-3M melanoma is above 100 µM; in the test on NCI-H23 lung, above 100 µM; in the test with OVCAR-4 ovarian, above 100 µM; in the test with SK-MEL-5 melanoma it was 44.7 µM.
Take `Oc1c2c(c(O)c3ccccc13)C1(N=N2)c2ccccc2Oc2ccccc21`: the TGI is 33.3 µM in the test on SF-295 CNS; 23.5 µM in the test with BT-549 breast; 14.7 µM with RPMI-8226 leukemia; 13.6 µM with MCF7 breast; 11.1 µM in the test on OVCAR-8 ovarian; above 100 µM in the test with SR leukemia. Moreover, the TGI in the test on MALME-3M melanoma was 9.28 µM; with NCI-H23 lung, above 100 µM; in the test on SK-MEL-5 melanoma, 27.2 µM.
As for `FC(F)(F)c1[nH]ncc1-c1nc2ccc3[nH]ncc3c2c2c1CCCC2`, the GI50 in the test with SF-295 CNS is 1.69 µM; in the test on BT-549 breast, 1.21 µM; in the test with RPMI-8226 leukemia, 1.42 µM; in the test on MCF7 breast, 1.67 µM; with OVCAR-8 ovarian it was 2.63 µM; with SR leukemia, 0.356 µM. Also, the GI50 was 0.927 µM with MALME-3M melanoma, 1.52 µM in the test on NCI-H23 lung, 2.82 µM with OVCAR-4 ovarian and 1.55 µM with SK-MEL-5 melanoma. Further, the TGI in the test with SF-295 CNS worked out at 8.52 µM; in the test with BT-549 breast it was 2.66 µM; in the test on RPMI-8226 leukemia, 6.66 µM; in the test on MCF7 breast it was 10.1 µM; in the test on OVCAR-8 ovarian, 11.9 µM; with SR leukemia it was 2.73 µM. Moreover, the TGI in the test on MALME-3M melanoma came to 3.82 µM; in the test with NCI-H23 lung, 4.32 µM; in the test on OVCAR-4 ovarian it was 11.4 µM; in the test with SK-MEL-5 melanoma it was 2.96 µM.
Take `CNCCCn1c2c(c3ccc(F)cc3c1=O)C(=O)c1cc(OC)cnc1-2`: the GI50 with SF-295 CNS was 0.185 µM; in the test on BT-549 breast, 0.577 µM; with RPMI-8226 leukemia, 0.203 µM; with MCF7 breast it was 0.0344 µM; in the test with OVCAR-8 ovarian it was 0.193 µM; with SR leukemia, 0.12 µM. The GI50 with MALME-3M melanoma is 0.318 µM; in the test with NCI-H23 lung it was 0.312 µM; in the test with OVCAR-4 ovarian it was 0.421 µM; in the test on SK-MEL-5 melanoma, 0.307 µM. Also, the TGI in the test on SF-295 CNS was 0.78 µM; with BT-549 breast it was 4.84 µM; in the test on RPMI-8226 leukemia it was 0.912 µM; with MCF7 breast it was 3.43 µM; in the test on OVCAR-8 ovarian it was 1.12 µM; with SR leukemia, 1.13 µM. Moreover, the TGI with MALME-3M melanoma turned out to be 1.55 µM; with NCI-H23 lung, 1.97 µM; in the test with OVCAR-4 ovarian, 10.5 µM; in the test on SK-MEL-5 melanoma, 1.08 µM.
Regarding `CCCCCSC1C2C(=O)C(Br)=CC13CCNc1c(O)c4c5c(c13)=[N+]2CCC=5C=N4` (configuration not stated), the GI50 in the test on SF-295 CNS is 3.89 µM; in the test with BT-549 breast it was 2.61 µM; in the test on RPMI-8226 leukemia it was 3.65 µM; with MCF7 breast, 0.341 µM; in the test with SR leukemia it was 1.35 µM; with MALME-3M melanoma it was 0.332 µM. Moreover, the GI50 with NCI-H23 lung is 1.33 µM; in the test on OVCAR-4 ovarian, 0.256 µM; in the test with SK-MEL-5 melanoma, 1.85 µM. Besides, the TGI in the test with SF-295 CNS was 9.61 µM; in the test with BT-549 breast, 4.96 µM; with RPMI-8226 leukemia it was 11 µM; in the test on MCF7 breast, 0.883 µM; in the test on SR leukemia it was 14.7 µM; in the test on MALME-3M melanoma, 1.37 µM. The TGI in the test with NCI-H23 lung came to 6.21 µM; with OVCAR-4 ovarian it was 0.609 µM; with SK-MEL-5 melanoma, 3.96 µM.
